From PMC13659687, “Cloning, expression, tertiary structure, activity characteristics, design of inhibitor, hydrolysis and inhibition mechanisms analysis of carp adipose triglyceride lipase (ATGL)” (Food Chemistry: Molecular Sciences, 2026)
Where a SMILES comes first, the peptide text is derived from it.

Assay: Maximum solubility of the small peptide
Type: physicochemical
Settings: neutral pH

maximum solubility (4 °C): approximately 0.4 mg/mL
maximum solubility (room temperature): approximately 0.7 mg/mL
Structure (SMILES): CC[C@H](C)[C@H](NC(=O)[C@H](CC(C)C)NC(=O)[C@@H](N)CCCCN)C(=O)N[C@@H](CCSC)C(=O)N[C@H](C(=O)O)C(C)C [Lys-Leu-Ile-Met-Val] (H-KLIMV-OH)
